Data as given in US12460245B2, “Luciferase sequences utilizing infrared-emitting substrates to produce enhanced luminescence” (Promega Corporation, priority 2014, dated 2025).

Key:
[1] = biological target: T1, QuantiLum® Recombinant Luciferase (Photinus pyralis, UniProt P08659); test: Spectral scan using Aka Lumine as substrate; format: biochemical; settings: FIG. 19B
T1 construct: purchased Promega E1701
Description: (§1) FIG. 19A and FIG. 19B illustrate the luminescence of CBR using Aka Lumine, PBI-4739 and PBI-4813 (FIG. 19A) and the spectral scan of QuantiLum® Recombinant Luciferase using Aka Lumine as substrate (FIG. 19B).

CBR [2] = test: Luminescence of CBR using Aka Lumine, PBI-4739 and PBI-4813; format: biochemical, click beetle; settings: FIG. 19A
Description: as §1

[3] = Solubility of the substrates; format: physicochemical; settings: PBI-4739 compared with PBI-4813
cells = test: Cell toxicity studies; format: cell-based; settings: compared to D-luciferin
[4] = biological target: T2, QuantiLum® luciferase (firefly) (Photinus pyralis, UniProt P08659); test: Spectral scan of near-IR substrates with purified enzyme; format: biochemical; settings: substrate 1 mM in Bright-Glo Assay buffer + 1 mM ATP
T2 construct: purchased Promega E1701
Procedure: Materials: The following were used in the Examples: Ultra-Glo™ Luciferase (Promega Cat. No. E140); QuantiLum® Recombinant Luciferase (Promega Cat. No. E1701); Click Beetle Red Luciferase (CBR; 0.5 mg/mL purified; Promega); Bright-Glo™ assay buffer (Promega Cat. No. E264A); PBI-4739 (Promega—See FIG. 1); and PBI-4813 (Promega—See FIG. 1).
Experimental Details. The substrates, PBI-4813 and PBI-4739, were diluted to 1 mM (final concentration) in Bright-Glo™ Assay buffer+1 mM ATP. 50 μL of substrate solution was added to 50 μL of Click Beetle Red, UltraGlo® or QuantiLum® purified enzyme (0.5 mg/mL diluted in DMEM+0.1% Prionex) in triplicate, and then the samples assayed using a Tecan M-1000 plate reader in spectral scan mode.
FIG. 2 provides the spectral data for Click Beetle Red Luciferase with PBI-4813 (A) and PBI-4739 (B), where the spectral maximum was 655 nm for PBI-4813 and 760 nm for PBI-4739. FIG. 3 provides the spectral data for UltraGlo® luciferase with PBI-4813 (A) and PBI-4739 (B), where the spectral maximum was 670 nm for PBI-4813 and 660 nm for PBI-4739. FIG. 4 provides the spectral data for QuantiLum® luciferase (firefly) with PBI-4813 (A) and PBI-4739 (B), where the spectral maximum was 680 nm for PBI-4813 and equal to or greater than 700 nm for PBI-4739.

CBR [5] = test: Km titration in live HEK293T cells; format: cell-based, click beetle; settings: 60 min at 37° C.
Procedure: HEK293T cells were plated at 15,000 cells/well into wells of 96-well white assay plates and grown overnight. A transfection mixture was made containing 13 μg of CBR DNA and 40 μL FuGENE® HD in a total volume of 620 μL OptiMEM. The mixture was incubated at room temperature for 10 min. The cells were then transfected, in triplicate, with 5 μL of transfection complex and grown overnight. […] The growth media from the transfected cells was removed and replaced with one of the 3× serial diluted substrate containing media. The cells were incubated 60 min at 37° C., and the cells were imaged on a ImageQuant CCD imager (FIG. 22).

CBR [6] = test: Km titration in HEK293 cell lysates; format: biochemical, click beetle
Procedure: (§2) Some of the variants identified in Examples 2 and 3 were screened for their performance in mammalian cells. DNA was prepared by Plasmid.com. HEK293 and HeLa cells were plated into wells of a 24-well plate at 0.05×10^6 cells/mL and grown overnight at 37° C. with CO2. 2.2 μg variant DNA was mixed with 80 μL OptiMEM and 6.6 μL FuGENE® HD transfection reagent (Promega Corporation) and incubated at room temperature for 5 min. 25 μL of the DNA mixture was added to each well. After overnight incubation, the media was removed from the cells and 1 mL DPBS (Life Technologies) was added. […] Luminescence of the variants was normalized to the average of two CBR samples (FIG. 6 and FIG. 7). C. Km Titration. Cell lysates of ATG 1230 and ATG 1240 expressed in HEK293 cells were prepared as described in Example 4. The cell lysates were then diluted 1:10 in 0.3×PLB+0.1% Prionex. Dilutions (2×) of each substrate (PBI-4813 or PBI-4739) were prepared in Bright-Glo™ Assay buffer containing 1 mM ATP. 50 μL of diluted cell lysate was assayed with 50 μL of each substrate assay solution. Luminescence was detected on the GloMax® Discover (FIG. 12). […] Because the enzyme concentration is not known for the lysates of for live cell titrations, Vmax as expressed as a velocity is not possible. Instead, the relative Vmax calculates the maximum brightness for each lysate with different substrates.

ATG1240 = test: Km titration in HEK293 cell lysates; format: biochemical, click beetle
Procedure: as §2

CBR [7] = test: Km titration in live HeLa cells; format: cell-based, click beetle; settings: 60 min at 37° C.
Procedure: HeLa cells were plated at 20,000 cells/well into wells of 96-well white assay plates and grown overnight. A transfection mixture was made containing 13 μg of CBR DNA and 40 μL FuGENE® HD in a total volume of 620 μL OptiMEM. The mixture was incubated at room temperature for 10 min. The cells were then transfected, in triplicate, with 5 μL of transfection complex and grown overnight. […] The growth media from the transfected cells was removed and replaced with one of the 3× serial diluted substrate containing media. The cells were incubated for 60 min at 37° C. Luminescence was detected on a GloMax®-Multi+luminometer (FIG. 21A and FIG. 21B).

ATG 1240 = test: Mimicry of tissue attenuation using long pass filters, transfected HEK293T cells; format: cell-based, click beetle; settings: HEK293T cells expressing ATG 1240; long pass filters
Procedure: A transfection complex was prepared by diluting ATG 1240 DNA or Luc2 DNA (pF4Ag-Luc2) to 100 ng/μL, and then 2× serial dilutions prepared in 50 ng/μL pGEM carrier DNA. 40 μL of the diluted DNA was the mixed with 160 μL phenol red free OptiMEM and 16 μL of FuGENE® HD and incubated for 20 min. 5 μL of each transfection complex was added to wells of a 96-well black assay plates and then 100 μL of diluted HEK293T cells (200,000/mL in DMEM+10% FBS) was added. The cells were grown overnight at 37° C. with CO2.
To assay the cells, 4 mM D-luciferin, 2 mM PBI-4813 and 2 mM PBI-4739 substrate solutions were prepared in DMEM+10% FBS. 100 μL of the D-luciferin solution was added to cells expressing Luc2 and ATG 1240, and 100 μL of PBI-4813 or PBI-4739 solution was added to ATG 1240 expressing cells. Samples were incubated for 10 min at 37° C., and luminescence detected on GloMax® Discover (heated to 37° C.) with no filter, 610 nm Long Pass (LP) filter, 665 nm LP filter, 695 nm LP filter, 720 nm LP filter or 760 nm LP filter.

[8] = Substrate inhibition of luciferase activity at high substrate concentration; format: biochemical
[9] = test system: Click Beetle Red (CBR) mutant(s); test: Light emission from Click Beetle Red mutant(s) with the red-shifted substrates; format: biochemical; settings: PBI-4813 compared with PBI-4739
[10] = Km in live cell (remark in Example 13); format: cell-based; settings: enzyme not stated

T2 sequence (P08659 whole entry): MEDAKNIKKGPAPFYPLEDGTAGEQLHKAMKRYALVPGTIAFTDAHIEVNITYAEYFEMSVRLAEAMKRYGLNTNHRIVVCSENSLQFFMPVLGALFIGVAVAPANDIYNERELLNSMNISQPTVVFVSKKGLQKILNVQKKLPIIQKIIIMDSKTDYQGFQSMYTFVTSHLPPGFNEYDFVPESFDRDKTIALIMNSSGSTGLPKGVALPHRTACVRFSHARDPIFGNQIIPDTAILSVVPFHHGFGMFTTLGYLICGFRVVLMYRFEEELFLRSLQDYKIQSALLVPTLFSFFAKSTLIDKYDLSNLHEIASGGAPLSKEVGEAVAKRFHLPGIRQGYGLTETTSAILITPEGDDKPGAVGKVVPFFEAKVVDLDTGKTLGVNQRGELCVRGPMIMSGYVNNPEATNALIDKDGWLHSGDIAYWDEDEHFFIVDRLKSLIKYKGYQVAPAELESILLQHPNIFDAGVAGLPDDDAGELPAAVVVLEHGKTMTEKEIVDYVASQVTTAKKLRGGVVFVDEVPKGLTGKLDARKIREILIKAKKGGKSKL
T1 sequence (P08659 whole entry): as above

| SMILES | emission wavelength (less red) [1] | brightness (CBR [2]) | solubility [3] | cell toxicity (cells) | spectral maximum with QuantiLum® luciferase (firefly) [4] | Km for CBR, lower relative to D-luciferin (CBR [5]) | Km with CBR in the lysates, lower than CBR with D-luciferin (CBR [6]) | Km with ATG1240, lower than CBR with D-luciferin (ATG1240) | Km for CBR in live cells, lower than the Km for D-luciferin (CBR [7]) | luminescence of ATG 1240 at the greatest light attenuation (ATG 1240) | substrate inhibition by the substrate [8] | brightness of light emission [9] | Km less than for D-luciferin in live cell [10] |
| --- | --- | --- | --- | --- | --- | --- | --- | --- | --- | --- | --- | --- | --- |
| CN(C)c1ccc(/C=C/C=C/C2=N[C@@H](C(=O)O)CS2)cc1 [Aka Lumine] | 675 nm | dimmer |  |  |  |  |  |  |  |  |  |  |  |
| O=C(O)C1CSC(c2nc3ccc4cc(O)ccc4c3s2)=N1 (stereo not shown) [PBI-4739] |  |  | less soluble | comparable non-toxicity to D-luciferin | ≥ 700 nm | about 5 times |  |  |  |  |  |  |  |
| Nc1ccc2c(ccc3nc(C4=NC(C(=O)O)CS4)sc32)c1 (stereo not shown) [PBI-4813] |  |  |  | comparable non-toxicity to D-luciferin | 680 nm | about 23 times | about 30 × | about 5 × | about 20 times | comparable | possible substrate inhibition | brighter | more than 10 times |
